± gives the standard deviation of the averaged measurements.
How the values were obtained:
Assay in all cases: level (log10 ratio to DMSO vehicle control); higher = higher biomarker level / cell amount than vehicle control
[1] = compound: C=CC(=O)OCC(F)(F)C(F)(F)C(F)(F)C(F)(F)C(F)(F)C(F)(F)C(F)(F)C(F)F [1H,1H,9H-Perfluorononyl acrylate]; conditions: in DMSO
Experimental: (§1)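 BioMAP Diversity Plus panel of 12 human primary cell co-culture systems (3C, 4H, LPS, SAg, BT, BF4T, BE3C, CASM3C, HDF3CGF, KF3CT, MyoF, Mphg). Compounds were added 1 h before stimulation and left for 24 h (MyoF 48 h; BT 72 h for soluble read-outs or 6 d for IgG). Biomarkers were read by ELISA, cytotoxicity by SRB, PBMC viability and proliferation by Alamar Blue. Each well value was divided by the mean of 8 DMSO control wells on the same plate and log10 transformed; duplicate blinded samples were tested at 4 concentrations.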

[2] = compound: C=CC(=O)OCC(F)(F)C(F)(F)C(F)(F)C(F)(F)COC(=O)C=C [1H,1H,6H,6H-Perfluorohexane-1,6-diol diacrylate]; conditions: 6700 nM; in DMSO
Experimental: as §1

[3] = compound: FC(F)(I)C(F)(F)C(F)(F)C(F)(F)C(F)(F)C(F)(F)I [1,6-Diiodoperfluorohexane]; conditions: 6700 nM; in DMSO
Experimental: as §1

[4] = compound: O=C(CC(=O)C(F)(F)C(F)(F)C(F)(F)F)c1cccs1 [(Perfluorobutyryl)-2-thenoylmethane]; conditions: in DMSO
Experimental: as §1

Tetrafluorosuccinic acid = compound: O=C(O)C(F)(F)C(F)(F)C(=O)O [Tetrafluorosuccinic acid]; conditions: in DMSO
Experimental: as §1

[5] = compound: O=C(O)C(F)(F)C(F)(F)C(F)(F)C(F)(F)C(F)(F)C(F)(F)C(F)(F)F [Ammonium perfluorooctanoate]; conditions: in DMSO
Experimental: as §1

Perfluorooctanoic acid = compound: O=C(O)C(F)(F)C(F)(F)C(F)(F)C(F)(F)C(F)(F)C(F)(F)C(F)(F)F [Perfluorooctanoic acid]; conditions: in DMSO
Experimental: as §1

[6] = compound: OCCC(F)(F)C(F)(F)C(F)(F)C(F)(F)C(F)(F)C(F)(F)C(F)(F)C(F)(F)F [8:2 Fluorotelomer alcohol]; conditions: 6700 nM; in DMSO
Experimental: as §1

[7] = compound: OCCCC(F)(F)C(F)(F)C(F)(F)C(F)(F)C(F)(F)C(F)(F)C(F)(F)C(F)(F)F [3-(Perfluorooctyl)propanol]; conditions: 6700 nM; in DMSO
Experimental: as §1

Row | Test System | level (log10) ([1]; 6700 nM) | level (log10) ([1]; 20000 nM) | level (log10) ([1]; 60000 nM) | level (log10) [2] | level (log10) [3] | level (log10) ([4]; 6700 nM) | level (log10) ([4]; 20000 nM) | level (log10) (Tetrafluorosuccinic acid; 6700 nM) | level (log10) (Tetrafluorosuccinic acid; 20000 nM) | level (log10) (Tetrafluorosuccinic acid; 60000 nM) | level (log10) ([5]; 6700 nM) | level (log10) ([5]; 20000 nM) | level (log10) ([5]; 60000 nM) | level (log10) (Perfluorooctanoic acid; 6700 nM) | level (log10) (Perfluorooctanoic acid; 20000 nM) | level (log10) (Perfluorooctanoic acid; 60000 nM) | level (log10) [6] | level (log10) [7]
1 | BT:sIL-17F | -0.175 ± 0.05 | -0.483 ± 0.2 | -0.84 ± 0.25 | -0.816 ± 0.025 | 0.06 | -0.114 ± 0.061 | -0.45 ± 0.048 | 0.0105 ± 0.026 | 0.0175 ± 0.043 | -0.0215 ± 0.033 | -0.0405 ± 0.13 | -0.0495 ± 0.094 | -0.0615 ± 0.14 | 0.032 ± 0.04 | 0.0665 ± 0.11 | 0.095 ± 0.035 | 0.013 ± 0.065 | -0.101 ± 0.015
2 | 3C:CXCL8/IL-8 | 0.001 ± 0.03 | 0.02 ± 0.023 | 0.029 ± 0.033 | 0.017 ± 0.024 | -0.008 | -0.112 ± 0.0035 | -0.091 ± 0.014 | -0.0265 ± 0.015 | -0.0235 ± 0.012 | -0.0005 ± 0.049 | 0.0015 ± 0.0021 | 0.023 ± 0.027 | 0.085 ± 0.065 | 0.0295 ± 0.035 | 0.0585 ± 0.026 | 0.154 ± 0.0057 | -0.003 ± 0.034 | -0.008 ± 0.013
3 | BF4T:MMP-3 | 0.013 ± 0.013 | -0.003 ± 0.045 | 0.021 ± 0.0085 | 0.085 ± 0.038 | -0.029 | -0.0475 ± 0.026 | -0.0985 ± 0.032 | 0.0285 ± 0.012 | -0.008 ± 0.028 | 0.012 ± 0.0057 | 0.003 ± 0.0014 | 0.0165 ± 0.011 | 0.084 ± 0.02 | -0.007 ± 0.018 | 0.007 ± 0.0028 | 0.023 ± 0.021 | -0.001 ± 0.0014 | 0.018 ± 0.03
4 | 4H:VEGFR2 | -0.018 ± 0.014 | -0.009 ± 0.057 | 0.0045 ± 0.03 | -0.0605 ± 0.00071 | -0.002 | -0.0915 ± 0.0078 | -0.172 ± 0.064 | -0.032 ± 0.014 | -0.027 | 0.007 ± 0.11 | -0.0055 ± 0.0035 | -0.009 ± 0.0014 | -0.0455 ± 0.098 | 0.019 ± 0.0099 | 0.0055 ± 0.042 | 0.0205 ± 0.033 | 0.0185 ± 0.0064 | -0.013 ± 0.0085
5 | LPS:CCL2/MCP-1 | -0.023 ± 0.021 | -0.007 ± 0.045 | -0.055 ± 0.0085 | -0.0285 ± 0.019 | 0.01 | -0.0475 ± 0.0035 | -0.131 ± 0.0057 | -0.02 ± 0.0085 | -0.027 ± 0.014 | -0.0095 ± 0.043 | -0.0095 ± 0.0035 | -0.001 ± 0.031 | 0.0105 ± 0.0092 | -0.0035 ± 0.00071 | 0.013 | 0.0525 ± 0.022 | 0.0055 ± 0.011 | -0.0925 ± 0.13
6 | LPS:IL-1alpha | 0.04 ± 0.028 | 0.0435 ± 0.03 | 0.0325 ± 0.053 | -0.0065 ± 0.015 | -0.016 | -0.069 ± 0.034 | 0.109 ± 0.016 | -0.0215 ± 0.021 | -0.0175 ± 0.0092 | -0.0015 ± 0.013 | 0.019 ± 0.0042 | 0.0045 ± 0.00071 | -0.034 ± 0.024 | 0.0135 ± 0.0035 | -0.0205 ± 0.043 | -0.007 ± 0.017 | -0.015 ± 0.013 | -0.267 ± 0.065
7 | BF4T:CXCL8/IL-8 | -0.0025 ± 0.061 | 0.0315 ± 0.053 | 0.0175 ± 0.012 | -0.0265 ± 0.013 | -0.014 | 0.0325 ± 0.028 | 0.114 ± 0.0092 | 0.0235 ± 0.0064 | 0.016 ± 0.038 | 0.029 ± 0.023 | 0.0135 ± 0.047 | 0.043 ± 0.058 | 0.04 ± 0.088 | -0.0035 ± 0.013 | -0.0085 ± 0.0035 | -0.0025 ± 0.016 | -0.0095 ± 0.0092 | 0.006 ± 0.023
8 | BT:sIL-6 | -0.073 ± 0.018 | -0.269 ± 0.07 | -0.693 ± 0.5 | -0.546 ± 0.044 | -0.018 | -0.009 ± 0.024 | -0.265 ± 0.067 | -0.0225 ± 0.0064 | -0.018 ± 0.025 | -0.033 ± 0.011 | -0.0485 ± 0.0021 | -0.0025 ± 0.037 | -0.034 ± 0.085 | 0.024 ± 0.03 | -0.0095 ± 0.035 | 0.0025 ± 0.0078 | 0.0665 ± 0.013 | 0.0875 ± 0.052

From the supplement of paper PMC10331698
